In patent publication US7135457B1, “Random peptides that bind to gastro-intestinal tract (GIT) transport receptors and related methods” (Cytogen Corporation, priority 1997, dated 2006):
Peptide text beside a SMILES is read from it. * marks the point of attachment. Dansyl = CN(C)c1cccc2c(S(=O)(=O)*)cccc12

System: P100 membrane fractions derived from Caco-2 cells
Assay: Dansylated peptide ELISA on P100: PAX2 and HAX42 peptides relative binding
Protocol: The peptides and proteins were analyzed by a dansylated peptide ELISA method in which 96 well plates were coated overnight at 4° C. with 100 μl/well coating protein (normally 100 μg/ml P100 membrane fraction) in 0.05M carbonate buffer pH9.6. Nonspecific binding was blocked using 200 μl/well, 2% Marvel/PBS for 2 hours at 37° C. prior to incubation with dansylated peptides. The plates were washed three times with PBS/0.05% Tween 20 and after each subsequent incubation step. […] A buffer blank control was included to ensure that background binding to plastic was not due to the antibodies used in the assay system. […] The plates were then incubated with an anti-mouse λ-HRP conjugated antibody (Southern Biotech 1060-05) at a 1:10,000 dilution in blocking solution, 100 μl/well for 1 hour at room temperature. Plates were developed using 75 μl/well Bionostics TMB substrate and incubated for approximately 10 minutes. The developing reaction was stopped using Bionostics Red Stop solution (25 μl/well), and the optical density of the plates was read at 650 nm.

[1] = PAX2 peptides, ratio to ZElan021 (HAX42 = 1.00), first 20 μg/ml column
[2] = PAX2 peptides, ratio to ZElan021 (HAX42 = 1.00), first 50 μg/ml column
[3] = PAX2 peptides, ratio to ZElan021 (HAX42 = 1.00), second 20 μg/ml column
[4] = PAX2 peptides, ratio to ZElan021 (HAX42 = 1.00), second 50 μg/ml column
[5] = HAX42 peptides, ratio to ZElan021 (arbitrary 1.00)
[6] = HAX42 peptides, ratio to ZElan021 (arbitrary 1.00), first 50 μg/ml column
[7] = HAX42 peptides, ratio to ZElan021 (arbitrary 1.00), second 50 μg/ml column

Compound | Binding value at 20 μg/ml [1] | Binding value at 50 μg/ml [2] | Binding value at 20 μg/ml [3] | Binding value at 50 μg/ml [4] | further results
CC(C)C[C@H](NC(=O)[C@H](CCCNC(=N)N)NC(=O)[C@H](CCCNC(=N)N)NC(=O)[C@H](CC(N)=O)NC(=O)[C@H](Cc1c[nH]cn1)NC(=O)[C@H](CO)NC(=O)[C@H](CO)NC(=O)[C@@H](N)CCCCNS(=O)(=O)c1cccc2c(N(C)C)cccc12)C(=O)N[C@@H](CCCNC(=N)N)C(=O)N[C@H](C(=O)N[C@@H](CCCNC(=N)N)C(N)=O)[C@@H](C)O [ZElan035] (H-K(Dansyl)SSHNRRLRTR-NH2) | 0.12 | 0.81 | 0.43 | 0.77 | –
C[C@H](NC(=O)[C@H](CC(N)=O)NC(=O)[C@@H](NC(=O)[C@@H](N)CCCCNS(=O)(=O)c1cccc2c(N(C)C)cccc12)[C@@H](C)O)C(=O)N[C@@H](CCCCN)C(=O)N[C@@H](Cc1c[nH]cn1)C(=O)N[C@@H](CO)C(=O)N[C@@H](CO)C(=O)N[C@@H](Cc1c[nH]cn1)C(=O)N[C@@H](CC(N)=O)C(N)=O [ZElan055] (H-K(Dansyl)TNAKHSSHN-NH2) | 0.99 | 1.10 | 0.73 | 0.59 | –
CC(C)C[C@H](NC(=O)[C@H](CCCNC(=N)N)NC(=O)[C@H](CO)NC(=O)[C@@H](NC(=O)[C@H](CCCCN)NC(=O)[C@H](CC(N)=O)NC(=O)[C@H](CCCNC(=N)N)NC(=O)[C@@H](NC(=O)[C@H](CC(N)=O)NC(=O)[C@H](CCCNC(=N)N)NC(=O)[C@@H](N)CCCCNS(=O)(=O)c1cccc2c(N(C)C)cccc12)[C@@H](C)O)[C@@H](C)O)C(=O)N[C@@H](CO)C(=O)N[C@@H](C)C(=O)N[C@@H](CC(N)=O)C(=O)N1CCC[C@H]1C(=O)N[C@@H](Cc1c[nH]cn1)C(=O)N[C@@H](CCCNC(=N)N)C(=O)N[C@@H](CO)C(=O)N[C@@H](Cc1c[nH]cn1)C(=O)N[C@@H](CCCNC(=N)N)C(N)=O [ZElan084] (H-K(Dansyl)RNTRNKTSRLSANPHRSHR-NH2) | – | – | 0.93 | 0.77 | –
H-K(Dansyl)STPPSREAYSRPYSVDSDSDTNAKHSSHNRRLRTRSRPNG-NH2 [ZElan018] | −0.33 | 0.95 | – | – | –
CC(C)C[C@H](NC(=O)[C@H](CCCNC(=N)N)NC(=O)[C@H](CCCNC(=N)N)NC(=O)[C@@H](N)CCCCNS(=O)(=O)c1cccc2c(N(C)C)cccc12)C(=O)N[C@@H](CCCNC(=N)N)C(=O)N[C@H](C(=O)N[C@@H](CCCNC(=N)N)C(N)=O)[C@@H](C)O [ZElan058, H2N-K(dns)RRLRTR-CONH2] (H-K(Dansyl)RRLRTR-NH2) | 0.05 | 0.47 | – | 0.16 | –
CC(C)C[C@H](NC(=O)[C@H](C)NC(=O)[C@H](Cc1c[nH]cn1)NC(=O)[C@H](CC(=O)O)NC(=O)[C@H](CO)NC(=O)[C@@H](N)CCCCNS(=O)(=O)c1cccc2c(N(C)C)cccc12)C(=O)NCC(=O)N[C@H](C(=O)N[C@@H](CC(N)=O)C(=O)N[C@@H](CC(C)C)C(=O)N[C@@H](CCCNC(=N)N)C(=O)N[C@@H](CO)C(=O)N[C@@H](CC(=O)O)C(=O)N[C@@H](CC(N)=O)C(=O)N[C@@H](C)C(=O)N[C@@H](CCCCN)C(=O)N[C@@H](CCC(=O)O)C(=O)N1CCC[C@H]1C(=O)NCC(=O)N[C@@H](CC(=O)O)C(=O)N[C@@H](Cc1ccc(O)cc1)C(=O)N[C@@H](CC(N)=O)C(=O)N[C@@H](CS)C(=O)N[C@@H](CS)C(=O)NCC(=O)N[C@@H](CC(N)=O)C(=O)NCC(N)=O)[C@@H](C)O [ZElan060] (H-K(Dansyl)SDHALGTNLRSDNAKEPGDYNCCGNG-NH2) | – | – | – | – | Binding value at 20 μg/ml [5]: 0.44; Binding value at 50 μg/ml [6]: 0.56; Binding value at 50 μg/ml [7]: 0.43
CC(C)C[C@H](NC(=O)[C@H](C)NC(=O)[C@H](Cc1c[nH]cn1)NC(=O)[C@H](CC(=O)O)NC(=O)[C@H](CO)NC(=O)[C@@H](N)CCCCNS(=O)(=O)c1cccc2c(N(C)C)cccc12)C(=O)NCC(=O)N[C@H](C(=O)N[C@@H](CC(N)=O)C(=O)N[C@@H](CC(C)C)C(=O)N[C@@H](CCCNC(=N)N)C(=O)N[C@@H](CO)C(=O)N[C@@H](CC(=O)O)C(=O)N[C@@H](CC(N)=O)C(=O)N[C@@H](C)C(=O)N[C@@H](CCCCN)C(=O)N[C@@H](CCC(=O)O)C(=O)N1CCC[C@H]1C(=O)NCC(=O)N[C@@H](CC(=O)O)C(=O)N[C@@H](Cc1ccc(O)cc1)C(=O)N[C@@H](CC(N)=O)C(=O)N[C@@H](CS)C(=O)N[C@@H](CS)C(=O)NCC(=O)N[C@@H](CC(N)=O)C(=O)NCC(=O)N[C@@H](CC(N)=O)C(=O)N[C@@H](CO)C(=O)N[C@H](C(N)=O)[C@@H](C)O)[C@@H](C)O [ZElan070] (H-K(Dansyl)SDHALGTNLRSDNAKEPGDYNCCGNGNST-NH2) | – | – | – | – | Binding value at 20 μg/ml [5]: 0.59; Binding value at 50 μg/ml [6]: 0.97; Binding value at 50 μg/ml [7]: 0.39
CC(C)C[C@H](NC(=O)[C@H](CCCNC(=N)N)NC(=O)[C@H](CCCNC(=N)N)NC(=O)[C@@H](N)CCCCNS(=O)(=O)c1cccc2c(N(C)C)cccc12)C(=O)N[C@@H](CCCNC(=N)N)C(=O)N[C@H](C(=O)N[C@@H](CCCNC(=N)N)C(=O)N[C@@H](CO)C(=O)N[C@@H](CCCNC(=N)N)C(N)=O)[C@@H](C)O [ZElan057] (H-K(Dansyl)RRLRTRSR-NH2) | 0.08 | 0.56 | – | 0.25 | –
H-K(Dansyl)SDHALGTNLRSDNAKEPGDYNCCGNGNSTGRKVFNRRRPSAIPT-NH2 (cysteines drawn unpaired) [ZElan021] | – | – | – | – | Binding value at 20 μg/ml [5]: 1.00; Binding value at 25 μg/ml (HAX42 peptides, ratio to ZElan021 (arbitrary 1.00), first 25 μg/ml column): 1.00; Binding value at 50 μg/ml [6]: 1.00; Binding value at 25 μg/ml (HAX42 peptides, ratio to ZElan021 (arbitrary 1.00), second 25 μg/ml column): 1.00; Binding value at 50 μg/ml [7]: 1.00; Binding value at 25 μg/ml (HAX42 peptides, ratio to ZElan021 (arbitrary 1.00), third 25 μg/ml column): 1.00
CN(C)c1cccc2c(S(=O)(=O)NCCCC[C@H](N)C(=O)N[C@@H](CC(N)=O)C(=O)N[C@@H](CCCNC(=N)N)C(=O)N[C@@H](CCCNC(=N)N)C(=O)N[C@@H](CCCNC(=N)N)C(=O)N3CCC[C@H]3C(=O)N[C@@H](CO)C(N)=O)cccc12 [ZElan067, H2N-K(dns)NRRRPS-CONH2] (H-K(Dansyl)NRRRPS-NH2) | – | – | – | – | Binding value at 20 μg/ml [5]: 0.08; Binding value at 50 μg/ml [6]: 0.52; Binding value at 50 μg/ml [7]: 0.40
CC(C)C[C@H](NC(=O)[C@H](CCCNC(=N)N)NC(=O)[C@H](CCCNC(=N)N)NC(=O)[C@H](CC(N)=O)NC(=O)[C@H](Cc1c[nH]cn1)NC(=O)[C@H](CO)NC(=O)[C@H](CO)NC(=O)[C@@H](N)CCCCNS(=O)(=O)c1cccc2c(N(C)C)cccc12)C(=O)N[C@@H](CCCNC(=N)N)C(=O)N[C@@H](C)C(=O)N[C@@H](CCCNC(=N)N)C(N)=O [ZElan081] (H-K(Dansyl)SSHNRRLRAR-NH2) | 0.01 | 0.89 | – | 0.47 | –
CC(C)C[C@H](NC(=O)[C@H](CCCNC(=N)N)NC(=O)[C@H](CCCNC(=N)N)NC(=O)[C@H](CC(N)=O)NC(=O)[C@H](Cc1c[nH]cn1)NC(=O)[C@H](CO)NC(=O)[C@H](CO)NC(=O)[C@H](Cc1c[nH]cn1)NC(=O)[C@H](CCCCN)NC(=O)[C@H](C)NC(=O)[C@H](CC(N)=O)NC(=O)[C@@H](NC(=O)[C@@H](N)CCCCNS(=O)(=O)c1cccc2c(N(C)C)cccc12)[C@@H](C)O)C(=O)N[C@@H](CCCNC(=N)N)C(=O)N[C@H](C(=O)N[C@@H](CCCNC(=N)N)C(N)=O)[C@@H](C)O [ZElan033] (H-K(Dansyl)TNAKHSSHNRRLRTR-NH2) | 0.35 | 0.80 | – | 0.66 | –
CC(C)C[C@H](NC(=O)[C@H](CCCNC(=N)N)NC(=O)[C@H](CCCNC(=N)N)NC(=O)[C@@H](N)CCCCNS(=O)(=O)c1cccc2c(N(C)C)cccc12)C(=O)N[C@@H](CCCNC(=N)N)C(=O)N[C@H](C(=O)N[C@@H](CCCNC(=N)N)C(=O)N[C@@H](CO)C(=O)N[C@@H](CCCNC(=N)N)C(=O)N1CCC[C@H]1C(=O)N[C@@H](CC(N)=O)C(N)=O)[C@@H](C)O [ZElan056] (H-K(Dansyl)RRLRTRSRPN-NH2) | 0.00 | 0.21 | 0.16 | 0.21 | –
CC(C)C[C@H](NC(=O)[C@H](CCCNC(=N)N)NC(=O)[C@H](CCCNC(=N)N)NC(=O)[C@H](CC(N)=O)NC(=O)[C@H](Cc1c[nH]cn1)NC(=O)[C@H](CO)NC(=O)[C@H](CO)NC(=O)[C@H](Cc1c[nH]cn1)NC(=O)[C@H](CCCCN)NC(=O)[C@H](C)NC(=O)[C@H](CC(N)=O)NC(=O)[C@@H](NC(=O)[C@@H](N)CCCCNS(=O)(=O)c1cccc2c(N(C)C)cccc12)[C@@H](C)O)C(=O)N[C@@H](CCCNC(=N)N)C(=O)N[C@H](C(=O)N[C@@H](CCCNC(=N)N)C(=O)N[C@@H](CO)C(=O)N[C@@H](CCCNC(=N)N)C(=O)N1CCC[C@H]1C(=O)N[C@@H](CC(N)=O)C(N)=O)[C@@H](C)O [ZElan032] (H-K(Dansyl)TNAKHSSHNRRLRTRSRPN-NH2) | – | 0.95 | – | – | –
H-K(Dansyl)GRNHDVVSSNTHKSYRSPRSASYPRLSNDRTDRTEPAPSS-NH2 [ZElan083] | 0.43 | – | 0.63 | 0.88 | –
